Test results from Sander's compilation of Henry's law constants.
Several values for one entry are separate records, joined by “and”; a condition that tells them apart may be missing. Identical values can stand only once. Each block holds one molecule with its values, some of them ahead of it.

Experiment: Henry solubility constant Hcp at 298.15 K (mol/(m3 Pa))
[1] = reference: Kuramochi et al. (2004)
[2] = reference: Cetin and Odabasi (2005)
[3] = reference: Schuhfried et al. (2011)
[4] = reference: Christie and Crisp (1967)
[5] = reference: Charles and Destaillats (2005)
[6] = reference: Simpson and Lovell (1962)
[7] = reference: Murphy et al. (1983a)
[8] = reference: Bakierowska and Trzeszczyński (2003)
[9] = reference: Jönsson et al. (1982)
[10] = reference: Butler and Ramchandani (1935)
[11] = reference: Arp and Schmidt (2004)
[12] = reference: Brockbank et al. (2013)
[13] = reference: Dohnal and Fenclová (1995)

SMILES: Brc1cc(Br)c(Br)cc1Br [1,2,4,5-tetrabromobenzene]
- Henry solubility constant Hcp [1]: 0.0027

SMILES: Brc1c(Br)c(Br)c(Oc2c(Br)c(Br)c(Br)c(Br)c2Br)c(Br)c1Br [decabromodiphenyl ether]
- Henry solubility constant Hcp [2]: 18
- Henry solubility constant Hcp (reference: Long et al. (2017)): 18

SMILES: CC(Cc1ccc(C(C)(C)C)cc1)CN1CCCCC1 (stereo unspecified) [fenpropidin]
- Henry solubility constant Hcp (reference: Feigenbrugel and Le Calvé (2021)): 710

SMILES: FC(F)=C(F)C(F)(F)F [hexafluoropropene]
- Henry solubility constant Hcp (reference: Maaßen (1995)): 6.8e-06

SMILES: CCC[N+](=O)[O-] [1-nitropropane]
- Henry solubility constant Hcp (reference: Beneš and Dohnal (1999)): 0.13

SMILES: CCSC [ethyl methyl sulfide]
- Henry solubility constant Hcp [3]: 0.0042

SMILES: CN [methanamine]
- Henry solubility constant Hcp [4]: 0.89

SMILES: BrC(Br)C(Br)Br [1,1,2,2-tetrabromoethane]
- Henry solubility constant Hcp (reference: Khalfaoui and Newsham (1994a)): 0.01

SMILES: Brc1ccc(Oc2cc(Br)c(Br)cc2Br)c(Br)c1 [2,2',4,4',5-pentabromodiphenyl ether]
- Henry solubility constant Hcp [2]: 1.5
- Henry solubility constant Hcp [5]: 0.27
- Henry solubility constant Hcp (reference: Long et al. (2017)): 1.5

SMILES: CN(CCO)CCO [N-methyldiethanolamine]
- Henry solubility constant Hcp (reference: Kim et al. (2008)): 400000
- Henry solubility constant Hcp (reference: Nguyen (2013)): 3900

SMILES: Clc1ccc(-c2c(Cl)cc(Cl)c(Cl)c2Cl)cc1Cl [2,3,3',4,4',6-hexachlorobiphenyl]
- Henry solubility constant Hcp [7]: 0.015

SMILES: CN=C=S [methyl isothiocyanate]
- Henry solubility constant Hcp (reference: Worthington and Wade (2007)): 0.16

SMILES: FC(F)(F)C(F)(F)C(Cl)Cl [3,3-dichloro-1,1,1,2,2-pentafluoropropane]
- Henry solubility constant Hcp (reference: Kutsuna (2013)): 9.8e-05

SMILES: CC(=O)CC(C)C [4-methyl-2-pentanone]
- Henry solubility constant Hcp (reference: Hovorka et al. (2019)): 0.065
- Henry solubility constant Hcp (reference: Kim et al. (2000)): 0.039

SMILES: Clc1cc(Cl)c2c(c1Cl)Oc1ccccc1O2 [1,2,4-trichlorodibenzo-p-dioxin]
- Henry solubility constant Hcp (reference: Santl et al. (1994)): 0.27

SMILES: CC(F)(Cl)Cl [1,1-dichloro-1-fluoroethane]
- Henry solubility constant Hcp (reference: Kutsuna (2013)): 0.00029
- Henry solubility constant Hcp (reference: Maaßen (1995)): 0.00028

SMILES: ClC1=C(Cl)[C@]2(Cl)[C@H]3[C@H]([C@@H]4C=C[C@H]3C4)[C@@]1(Cl)C2(Cl)Cl [aldrin]
- Henry solubility constant Hcp (reference: Warner et al. (1980)): 0.02

SMILES: CCN(CC)C(=O)SCc1ccc(Cl)cc1 [S-(4-chlorobenzyl) diethylthiocarbamate]
- Henry solubility constant Hcp (reference: Kawamoto and Urano (1989)): 4.9

SMILES: CCC(C)O[N+](=O)[O-] (stereo unspecified) [2-butyl nitrate]
- Henry solubility constant Hcp (reference: Hauff et al. (1998)): 0.0044
- Henry solubility constant Hcp (reference: Luke et al. (1989)): 0.0063

SMILES: C#CCC [1-butyne]
- Henry solubility constant Hcp [6]: 0.00072

SMILES: CCCCCCCCCCO [1-decanol]
- Henry solubility constant Hcp (reference: Lei et al. (2007)): 0.065
- Henry solubility constant Hcp (reference: Shunthirasingham et al. (2013)): 0.076

SMILES: O=C(O)CCCC(=O)O [pentanedioic acid]
- Henry solubility constant Hcp (reference: Mentel et al. (2004)): 1.9e+07

SMILES: C=CCSC [allyl methyl sulfide]
- Henry solubility constant Hcp [3]: 0.0042

SMILES: FN(F)F [nitrogen trifluoride]
- Henry solubility constant Hcp (reference: Ashton et al. (1968)): 7.8e-06
- Henry solubility constant Hcp (reference: Dean et al. (1973)): 7.7e-06

SMILES: O=C(O)C(F)(F)C(F)(F)C(F)(F)C(F)(F)C(F)(F)F [perfluorohexanoic acid]
- Henry solubility constant Hcp (reference: Kwan (2001)): 1.1

SMILES: Clc1ccc(-c2ccc(Cl)cc2)cc1 [4,4'-dichlorobiphenyl]
- Henry solubility constant Hcp [5]: 0.035

SMILES: CCCCN [1-butanamine]
- Henry solubility constant Hcp [10]: 0.65
- Henry solubility constant Hcp [4]: 0.56

SMILES: COC(C)=O [methyl ethanoate]
- Henry solubility constant Hcp [11]: 0.066
- Henry solubility constant Hcp [10]: 0.11
- Henry solubility constant Hcp (reference: Fenclová et al. (2014)): 0.081
- Henry solubility constant Hcp (reference: Ioffe et al. (1984)): 0.077
- Henry solubility constant Hcp (reference: Kieckbusch and King (1979b)): 0.077
- Henry solubility constant Hcp (reference: McKeown and Stowell (1927)): 0.087

SMILES: CCCCCCN [1-hexanamine]
- Henry solubility constant Hcp [4]: 0.37

SMILES: Brc1ccc(Br)c(Br)c1 [1,2,4-tribromobenzene]
- Henry solubility constant Hcp [1]: 0.031

SMILES: CNC=O [N-methylmethanamide]
- Henry solubility constant Hcp (reference: Bernauer and Dohnal (2008)): 1500

SMILES: Clc1cccc(Cl)c1Cl [1,2,3-trichlorobenzene]
- Henry solubility constant Hcp [12]: 0.0063

SMILES: O=C(O)C(F)(F)C(F)(F)C(F)(F)C(F)(F)C(F)(F)C(F)(F)F [perfluoroheptanoic acid]
- Henry solubility constant Hcp (reference: Kwan (2001)): 1.7

SMILES: ClC1C(Cl)C(Cl)C(Cl)C(Cl)C1Cl (stereo not drawn) [α-1,2,3,4,5,6-hexachlorocyclohexane]
- Henry solubility constant Hcp (reference: Kucklick et al. (1991)): 1.3
- Henry solubility constant Hcp (reference: Sahsuvar et al. (2003)): 1.7

SMILES: FC(F)C(F)(F)F [pentafluoroethane]
- Henry solubility constant Hcp (reference: Miguel et al. (2000)): 0.00031
- Henry solubility constant Hcp (reference: Reichl (1995)): 3.5e-05

SMILES: Cc1ccc(C)c(O)c1 [1-hydroxy-2,5-dimethylbenzene]
- Henry solubility constant Hcp [13]: 7.5

SMILES: COC(=O)C(F)(F)F [trifluoroethanoic acid, methyl ester]
- Henry solubility constant Hcp (reference: Kutsuna et al. (2004)): 0.0012

SMILES: C=CC(C)=O [3-buten-2-one]
- Henry solubility constant Hcp (reference: Allen et al. (1998)): 0.21
- Henry solubility constant Hcp (reference: Iraci et al. (1999)): 0.4
- Henry solubility constant Hcp (reference: Ji and Evans (2007)): 0.26

SMILES: c1ccc(-c2ccccc2)cc1 [biphenyl]
- Henry solubility constant Hcp (reference: Mackay et al. (1979)): 0.024

SMILES: CCCC(C)O[N+](=O)[O-] (stereo unspecified) [2-pentyl nitrate]
- Henry solubility constant Hcp (reference: Hauff et al. (1998)): 0.0037

Further lines, results first:

- Henry solubility constant Hcp (reference: Buttery et al. (1965)): 0.075
SMILES: CCCCCCCC=O [octanal]

- Henry solubility constant Hcp (reference: Buttery et al. (1971)): 2
SMILES: CC(C)Cc1cnccn1 [2-isobutylpyrazine]

- Henry solubility constant Hcp (reference: Gibbs et al. (1991)): 6200
SMILES: CC(=O)N1CCCC1 [N-acetylpyrrolidine]

- Henry solubility constant Hcp (reference: Lei et al. (2004)): 0.00017
- Henry solubility constant Hcp (reference: Wu and Chang (2011)): 0.0002
SMILES: OCCC(F)(F)C(F)(F)C(F)(F)C(F)(F)C(F)(F)C(F)(F)C(F)(F)C(F)(F)F [1H,1H,2H,2H-perfluorodecan-1-ol]

- Henry solubility constant Hcp (reference: Tsonopoulos and Wilson (1983)): 5.4e-05
- Henry solubility constant Hcp (reference: Tucker et al. (1981)): 5.4e-05
SMILES: C1CCCCC1 [cyclohexane]

- Henry solubility constant Hcp [6]: 0.00038
SMILES: C#CC=C [3-buten-1-yne]

- Henry solubility constant Hcp (reference: Cosgrove and Walkley (1981)): 2.6e-05
- Henry solubility constant Hcp (reference: Crovetto et al. (1982)): 2.5e-05
- Henry solubility constant Hcp (reference: Krause and Benson (1989)): 2.5e-05
- Henry solubility constant Hcp (reference: Morrison and Johnstone (1954)): 2.4e-05
- Henry solubility constant Hcp (reference: von Antropoff (1910)): 3.4e-05 and 2.8e-05
SMILES: [Kr] [krypton]

- Henry solubility constant Hcp (reference: Khan and Brimblecombe (1992)): 21
- Henry solubility constant Hcp (reference: Khan et al. (1995)): 23
- Henry solubility constant Hcp (reference: Kim and Kim (2016)): 24
- Henry solubility constant Hcp (reference: von Hartungen et al. (2004)): 12
SMILES: CCCCC(=O)O [pentanoic acid]

- Henry solubility constant Hcp [8]: 0.0028
SMILES: ClC1CCCCC1 [chlorocyclohexane]

- Henry solubility constant Hcp (reference: Straver and de Loos (2005)): 0.088
SMILES: CC/C=C\CCC=O [(Z)-4-heptenal]

- Henry solubility constant Hcp (reference: Dohányosová et al. (2004)): 0.00021
SMILES: C1=C\CCCCCC/1 [cyclooctene]

- Henry solubility constant Hcp [9]: 4.2e-06
- Henry solubility constant Hcp (reference: Park et al. (1997)): 5.5e-06
SMILES: CCCCCCC [heptane]

- Henry solubility constant Hcp [3]: 0.0024
SMILES: CCCSSCCC [dipropyl disulfide]

- Henry solubility constant Hcp (reference: Inga and McKetta (1961)): 0.00062
- Henry solubility constant Hcp [6]: 0.00077
SMILES: C#CC [propyne]

- Henry solubility constant Hcp (reference: Maaßen (1995)): 5.4e-05
- Henry solubility constant Hcp (reference: Reichl (1995)): 5.4e-05
SMILES: C=CC [propene]

- Henry solubility constant Hcp [4]: 0.11
SMILES: CCCCNCCCC [dibutylamine]

- Henry solubility constant Hcp (reference: Kim and Kim (2016)): 15
SMILES: CCCCCCC(=O)O [heptanoic acid]

- Henry solubility constant Hcp [8]: 0.00033
- Henry solubility constant Hcp (reference: Nielsen et al. (1994)): 0.00025
SMILES: C1=CCCCC1 [cyclohexene]

- Henry solubility constant Hcp (reference: Copolovici and Niinemets (2007)): 0.38
- Henry solubility constant Hcp (reference: Leng et al. (2013)): 0.2
SMILES: C=CC(C)(O)CCC=C(C)C (stereo unspecified) [3,7-dimethyl-1,6-octadien-3-ol]

- Henry solubility constant Hcp (reference: Jou and Mather (2000)): 8.7e-06
- Henry solubility constant Hcp [9]: 8.2e-06
SMILES: CCCCC [pentane]

- Henry solubility constant Hcp (reference: Wen and Muccitelli (1979)): 1.2e-07
SMILES: FC(F)(F)C(F)(F)C(F)(F)F [octafluoropropane]

- Henry solubility constant Hcp [11]: 0.014
SMILES: CC(C)(C)OC=O [(1,1-dimethylethyl)-methanoate]

- Henry solubility constant Hcp (reference: Hwang et al. (2010)): 0.0031
SMILES: C=COCCC [propyl vinyl ether]

- Henry solubility constant Hcp (reference: Fenclová et al. (2010)): 0.54
SMILES: CC(C)C(C)O (stereo unspecified) [3-methyl-2-butanol]

- Henry solubility constant Hcp (reference: Wasik and Tsang (1970)): 0.0016
SMILES: [2H]c1c([2H])c([2H])c([2H])c([2H])c1[2H] [benzene-d6]

- Henry solubility constant Hcp [13]: 16
SMILES: Cc1cc(C)cc(O)c1 [1-hydroxy-3,5-dimethylbenzene]

- Henry solubility constant Hcp (reference: Bernauer and Dohnal (2009)): 2100
- Henry solubility constant Hcp (reference: Kim et al. (2000)): 3100
SMILES: CN1CCCC1=O [N-methyl-2-pyrrolidone]

- Henry solubility constant Hcp (reference: Reichl (1995)): 3.1e-06
SMILES: FC(F)(F)C(F)(F)Cl [chloropentafluoroethane]

- Henry solubility constant Hcp [5]: 0.88
SMILES: Brc1ccc(Oc2cc(Br)c(Br)c(Br)c2Br)cc1 [2,3,4,4',5-pentabromodiphenyl ether]

- Henry solubility constant Hcp [7]: 0.016
SMILES: Clc1cc(Cl)c(-c2c(Cl)cc(Cl)c(Cl)c2Cl)cc1Cl [2,2',3,4,4',5',6-heptachlorobiphenyl]

- Henry solubility constant Hcp [12]: 0.029
SMILES: COc1ccccc1 [methoxybenzene]
